Measured values reported in publication PMC11686366 (Nature Communications, 2024).

Tests used:
[1] = tested on: thiamine transporters (SLC19A2 and SLC19A3); type: cell-based, human
human SLC19A3 = target: T1, human SLC19A3 (Homo sapiens, UniProt Q9BZV2); experiment: Microscale thermophoresis; type: binding; details: for Kd: MST
T1 sequence (Q9BZV2 1-496): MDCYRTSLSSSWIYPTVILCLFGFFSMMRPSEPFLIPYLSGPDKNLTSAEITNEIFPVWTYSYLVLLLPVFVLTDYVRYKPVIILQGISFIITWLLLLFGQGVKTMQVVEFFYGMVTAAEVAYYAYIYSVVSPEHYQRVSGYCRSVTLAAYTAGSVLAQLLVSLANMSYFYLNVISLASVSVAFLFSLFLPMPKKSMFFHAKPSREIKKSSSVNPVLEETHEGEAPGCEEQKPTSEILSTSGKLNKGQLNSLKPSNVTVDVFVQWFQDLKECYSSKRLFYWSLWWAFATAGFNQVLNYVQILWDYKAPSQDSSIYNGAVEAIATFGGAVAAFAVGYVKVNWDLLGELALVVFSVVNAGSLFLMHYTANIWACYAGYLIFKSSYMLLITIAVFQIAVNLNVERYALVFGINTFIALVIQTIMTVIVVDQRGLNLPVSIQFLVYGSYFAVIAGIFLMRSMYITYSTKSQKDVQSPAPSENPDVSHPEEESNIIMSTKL

[2] = pyridoxine, bipolar molecule; cited from earlier work
human SLC19A2 = target: T2, human SLC19A2 (Homo sapiens, UniProt O60779); experiment: Microscale thermophoresis; type: binding; details: MST
T2 sequence (O60779 1-497): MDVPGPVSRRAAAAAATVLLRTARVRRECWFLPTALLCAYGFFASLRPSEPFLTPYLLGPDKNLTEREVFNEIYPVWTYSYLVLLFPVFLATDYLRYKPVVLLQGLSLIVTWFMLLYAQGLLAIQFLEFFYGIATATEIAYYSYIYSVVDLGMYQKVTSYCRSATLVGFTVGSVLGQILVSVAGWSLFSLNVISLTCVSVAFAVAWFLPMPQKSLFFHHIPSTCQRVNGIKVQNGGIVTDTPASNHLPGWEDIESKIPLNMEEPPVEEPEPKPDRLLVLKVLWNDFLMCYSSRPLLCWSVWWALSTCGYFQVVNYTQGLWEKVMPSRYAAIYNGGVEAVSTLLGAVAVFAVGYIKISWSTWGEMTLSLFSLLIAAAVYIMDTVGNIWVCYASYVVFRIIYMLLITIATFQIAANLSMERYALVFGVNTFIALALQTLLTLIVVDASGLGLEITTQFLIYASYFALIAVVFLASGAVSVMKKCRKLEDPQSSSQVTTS

N#CCNC(=O)c1ccc(-c2ccnc(Nc3ccc(N4CCOCC4)cc3)n2)cc1 [momelotinib]
Inhibition of 3H-thiamine uptake (in words) [1]: inhibitory effects

CCN1CCN(Cc2ccc(Nc3ncc(F)c(-c4cc(F)c5nc(C)n(C(C)C)c5c4)n3)nc2)CC1 [abemaciclib]
Inhibition of 3H-thiamine uptake (in words) [1]: inhibitor

Cc1ncc(C[n+]2csc(CCO)c2C)c(=O)[nH]1 [oxythiamine]
Inhibition of 3H-thiamine uptake (in words) [1]: inhibitory effects

Cc1cc(C#N)cc(C)c1Oc1nc(Nc2ccc(C#N)cc2)nc(N)c1Br [etravirine]
Inhibition of 3H-thiamine uptake (in words) [1]: inhibitor

Cc1cnc(Nc2ccc(OCCN3CCCC3)cc2)nc1Nc1cccc(S(=O)(=O)NC(C)(C)C)c1 [fedratinib]
Inhibition of 3H-thiamine uptake (in words) [1]: inhibitory effects

CCc1nc(N)nc(N)c1-c1ccc(Cl)cc1 [pyrimethamine]
Inhibition of 3H-thiamine uptake (in words) [1]: inhibitory effects

CN(C)C(=N)N=C(N)N [metformin]
Affinity (in words) (human SLC19A3; Supplementary Fig. 12 / 11b): millimolar affinity
Inhibition of 3H-thiamine uptake (in words) [1]: inhibitory effects

Cc1ncc(CO)c(CO)c1O [pyridoxine]
pKa (lower value) [2]: 5.6

Cc1ncc(C[n+]2csc(CCO)c2C)c(N)n1 [thiamine]
Kd (human SLC19A2; pH 6.0): ~1.2 µM
Kd (human SLC19A2; pH 7.5): ~78.4 µM
Kd (human SLC19A3; pH 6.0): ~0.25 µM
Kd (human SLC19A3; pH 7.5): ~154 µM

COc1cc(Cc2cnc(N)nc2N)cc(OC)c1OC [trimethoprium]
Inhibition of 3H-thiamine uptake (in words) [1]: inhibitory effects

CCCc1ncc(C[n+]2ccccc2C)c(N)n1 [amprolium]
Kd (human SLC19A3; pH 6.0): ~0.45 µM
Inhibition of 3H-thiamine uptake (in words) [1]: inhibitory effects
